US9359371B2, “Bicyclic substituted pyrimidine compounds” (Xuanzhu Pharma Co., Ltd., priority 2012, dated 2016)
Like-named read-outs stand apart in the source and are kept apart here.

Legend:
[1] = tested on: length of New Zealand rabbit's penis; test: Pharmacological activity in vivo (intravenous injection), rabbit penis length; design: species or system New Zealand rabbits; conditions: iv 10 mg/kg, sodium nitroprussiate 0.2 mg/kg iv 5 min after, 0-120 min
Method: Experiment 5: Assay of Pharmacological Activity In Vivo (Intravenous Injection)
After accommodating with the environment, the New Zealand rabbits were grabbed everyday. When the rabbits were accustomed to the repeated grabbing, drug administration was began. The animals were randomly divided into groups by weight. The test compounds were separately dissolved in menstruum. […] The corresponding test compounds were injected into the auricular veins of animals of each group. The dosage of the compounds in Table 5 was 10 mg/kg, and the administration volume was 1 mL/kg. The dosage of the compounds in Table 6 was 10 mg/kg, and the administration volume was 2 mL/kg. 0.2 mg/kg sodium nitroprussiate was intravenously injected into the rabbits 5 min after the administration of the test compounds, with the administration volume of 0.5 mL/kg.
The length of the rabbit's penis was measured with a digital caliper before and 10, 15, 30, 50, 60, 90 and 120 min after the administration. Touch of the rabbit's penis by the caliper was avoided during the measurements.

[2] = tested on: length of New Zealand rabbit's penis; test: Pharmacological activity in vivo (oral administration, 100 mg/kg), rabbit penis length; design: species or system New Zealand rabbits; conditions: Table 7; oral 100 mg/kg; 0-240 min
Description: Experiment 6: Assay of Pharmacological Activity In Vivo (Oral Administration)
After accommodating with the environment, the New Zealand rabbits were grabbed everyday. When the rabbits were accustomed to the repeated grabbing, drug administration was began. The animals were randomly divided into groups by weight, with 6 rabbits of each group. The test compounds were separately dissolved in menstruum. […] The corresponding test compounds were orally administrated to animals of each group. The dosage was 100 mg/kg, and the administration volume was 1 mL/kg. The length of the rabbit's penis was measured with a digital caliper before and 5, 10, 15, 30, 50, 60, 90, 120, 180 and 240 min after the administration. Touch of the rabbit's penis by the caliper was avoided during the measurements.

[3] = molecular target: hERG channel (Homo sapiens (Human), UniProt Q12809); test: hERG potassium channel whole-cell patch clamp on CHO-K1 cell line
hERG channel, sequence (Q12809 whole entry): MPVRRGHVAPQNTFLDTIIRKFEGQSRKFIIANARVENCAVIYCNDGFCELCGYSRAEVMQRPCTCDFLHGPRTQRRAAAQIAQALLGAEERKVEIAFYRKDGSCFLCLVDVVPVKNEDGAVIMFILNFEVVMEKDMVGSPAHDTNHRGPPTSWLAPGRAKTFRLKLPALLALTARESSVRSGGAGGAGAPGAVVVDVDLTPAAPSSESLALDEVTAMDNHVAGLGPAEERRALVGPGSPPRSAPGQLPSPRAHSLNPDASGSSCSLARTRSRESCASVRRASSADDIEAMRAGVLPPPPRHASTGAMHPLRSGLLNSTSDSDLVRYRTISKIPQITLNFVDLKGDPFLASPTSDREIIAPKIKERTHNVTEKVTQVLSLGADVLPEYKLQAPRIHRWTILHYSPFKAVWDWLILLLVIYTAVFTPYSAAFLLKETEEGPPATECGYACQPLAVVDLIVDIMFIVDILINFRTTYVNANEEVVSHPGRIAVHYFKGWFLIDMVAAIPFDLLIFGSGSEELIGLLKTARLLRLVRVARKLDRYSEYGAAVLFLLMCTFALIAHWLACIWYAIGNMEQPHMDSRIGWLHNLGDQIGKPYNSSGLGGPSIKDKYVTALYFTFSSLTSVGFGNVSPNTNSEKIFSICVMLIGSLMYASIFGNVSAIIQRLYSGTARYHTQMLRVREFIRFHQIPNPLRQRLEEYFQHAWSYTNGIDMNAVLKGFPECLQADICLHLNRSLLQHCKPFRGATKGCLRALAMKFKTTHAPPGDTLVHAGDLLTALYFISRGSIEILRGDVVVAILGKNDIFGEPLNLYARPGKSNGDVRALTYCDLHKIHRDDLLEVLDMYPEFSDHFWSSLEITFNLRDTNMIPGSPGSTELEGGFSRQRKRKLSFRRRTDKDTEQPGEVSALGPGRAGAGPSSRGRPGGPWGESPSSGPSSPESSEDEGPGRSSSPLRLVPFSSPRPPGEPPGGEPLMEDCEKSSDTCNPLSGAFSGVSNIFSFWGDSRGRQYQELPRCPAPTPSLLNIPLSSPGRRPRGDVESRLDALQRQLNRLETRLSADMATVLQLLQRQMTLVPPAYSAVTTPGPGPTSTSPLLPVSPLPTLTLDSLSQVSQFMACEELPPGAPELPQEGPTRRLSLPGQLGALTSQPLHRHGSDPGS
Description: Experiment 8: Detection of Inhibitory Effect of the Compounds of the Present Invention on hERG Potassium Channel by the Patch Clamp Method
Rapidly activated human delayed rectifying outward potassium current (IKr) is mainly mediated by hERG ion channel and is involved in repolarization of human cardiac muscle cell. Clinically, blocking of the current by a drug is the main cause of QT interval prolongation syndrome, acute arrhythmia and even sudden death. The main purpose of the experiment is to test the blocking effect of the compounds of the present invention on hERG channel, and to determine the half maximal inhibitory concentration (IC50) of the compounds.
The experiment mainly included: (1) recording hERG current by patch clamp technique on CHO-K1 cell line which stably expressed hERG channel; (2) calculating the Inhibition rate of each concentration according to hERG tail current; (3) testing each compound at 5 concentrations to calculate IC50; (4) testing 2 cells at each concentration; (5) a positive control.
The structures and synthesis of Compound 88 (WO-88) and Compound 93 (WO-93) as disclosed in WO200119802A were described in Example 55 and Example 56.
Drug for positive control: Amitriptyline hydrochloride (Sigma-Aldrich, an international standard blocker for hERG channel)
Pippette Solution (in mM): KCl 120, KOH 31.25, CaCl2 5.374, MgCl2 1.75, Ethylene glycol-bis(β-aminoethyl ether)-N,N,N′,N′-tetraacetic acid (EGTA) 10, HEPES 10, Na2-ATP 4, adjusted to a pH of 7.2 with 1N potassium hydroxide; adjusted to an osmotic pressure of 280-290 mOsm; preserved at −20° C. after filtration.
Preparation of compounds: Some of the compounds of the present invention and Amitriptyline hydrochloride as the positive control drug were separately dissolved in 100% DMSO (Merck, 61850125001730), then prepared into stock solutions of 30 mM. Before the experiment, the above stock solutions were diluted with DMSO to a concentration of 1000-fold of the experimental concentration. Then the diluted solutions were further diluted with extracellular solution by 1:1000 to the required experimental concentration. The final concentration of DMSO in the extracellular solution was kept as 0.1%.
Stable cell line CHO-hERG was purchased from AVIVA Company. The hERG current on the cell line was recorded. For the purpose of quality control, the smallest seal resistance was no less than 500 MΩ, and the hERG current was no less than 0.4 nA.
The hERG current was recorded by a whole-cell patch clamp technique. Cell suspension was added into a 35-mm culture dish. The culture dish was placed on the objective table of an inverted microscope. Upon cell attachment, perfusion was conducted with the extracellular solution at a flow rate of 1-2 mL/min.
Glass microelectrode with the pipette tip resistance of 2-5 MΩ was controlled by a microelectrode puller via a two-step process. After the whole-cell record was set up, the clamp potential was kept at −80 mV. The cell was depolarized to +60 mV by applying a voltage stimulus, and then repolarized to −50 mV to obtain the hERG tail current. Recordation was conducted after the current was stable. The extracellular perfusion was started from the lowest concentration, with 5-10 min for each concentration until the current was stable, and then conducted with the next concentration.
Stimulus payment and signal collection were performed by A/D-D/A conversion using Digidata 1440 (Molecular Devices) and pCLAMP software (Version 10.2, Molecular Devices). Signal amplification was performed on a patch clamp amplifier (Multiclamp 700B, Molecular Devices), with a filter of 1 KHz. Further data analysis and curve fitting were conducted by Clampfit (version 10.2, Molecular Devices) and Prism. The data were presented as mean value±standard deviation.
In the process of data analysis, the peak value and the baseline of the tail current were corrected when determining the blocking effect on hERG.

[4] = Pharmacokinetics (PK) in SD rats; format: in vivo; conditions: rat; for bioavailability: read-out: F % (absolute bioavailability)
[5] = in human; cited from earlier work
[6] = tested on: PDE-6; conditions: cited from earlier work
[7] = molecular target: PDE-11 (Homo sapiens (Human), UniProt Q9HCR9); conditions: cited from earlier work
PDE-11, sequence (Q9HCR9 whole entry): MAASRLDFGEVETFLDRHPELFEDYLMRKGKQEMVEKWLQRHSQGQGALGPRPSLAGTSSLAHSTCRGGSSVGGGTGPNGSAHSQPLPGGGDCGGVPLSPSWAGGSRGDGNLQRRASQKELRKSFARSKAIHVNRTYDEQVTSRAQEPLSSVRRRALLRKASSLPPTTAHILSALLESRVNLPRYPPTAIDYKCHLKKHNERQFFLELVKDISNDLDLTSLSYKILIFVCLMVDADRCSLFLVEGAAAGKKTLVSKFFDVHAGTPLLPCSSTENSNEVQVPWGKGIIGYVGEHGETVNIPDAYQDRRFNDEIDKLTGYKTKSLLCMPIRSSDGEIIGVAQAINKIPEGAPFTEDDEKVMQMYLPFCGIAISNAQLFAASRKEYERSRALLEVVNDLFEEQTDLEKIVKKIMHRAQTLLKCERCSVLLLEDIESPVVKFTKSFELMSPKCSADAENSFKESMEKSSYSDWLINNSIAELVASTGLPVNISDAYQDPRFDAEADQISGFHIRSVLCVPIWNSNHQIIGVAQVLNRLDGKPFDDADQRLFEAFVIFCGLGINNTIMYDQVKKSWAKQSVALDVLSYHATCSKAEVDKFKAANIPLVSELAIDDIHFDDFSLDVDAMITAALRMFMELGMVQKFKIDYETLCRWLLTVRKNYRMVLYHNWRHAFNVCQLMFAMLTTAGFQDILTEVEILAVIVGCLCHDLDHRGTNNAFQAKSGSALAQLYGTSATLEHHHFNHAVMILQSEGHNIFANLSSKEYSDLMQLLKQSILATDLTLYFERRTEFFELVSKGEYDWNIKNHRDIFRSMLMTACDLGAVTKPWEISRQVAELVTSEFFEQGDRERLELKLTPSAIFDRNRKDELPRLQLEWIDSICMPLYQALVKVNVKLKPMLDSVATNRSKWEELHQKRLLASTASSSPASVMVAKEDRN

[8] = molecular target: PDE-5A enzyme (Homo sapiens (Human), UniProt O76074); test: Caliper Mobility-Shift PDE-5A Assay; format: biochemical; conditions: Table 1; Avanafil value is the control
[9] = molecular target: PDE-5 enzyme (human blood platelets) (Homo sapiens (Human), UniProt O76074); test: PDE-5 enzyme assay, [3H]cGMP; format: biochemical
[10] = molecular target: bovine retinal PDE-6 (Bos taurus (Bovine), UniProt P11541+P23439); test: PDE-6 enzyme assay, [3H]cGMP; format: biochemical
bovine retinal PDE-6 (Bos taurus (Bovine), UniProt P11541+P23439), sequence (P11541 whole entry, looked up): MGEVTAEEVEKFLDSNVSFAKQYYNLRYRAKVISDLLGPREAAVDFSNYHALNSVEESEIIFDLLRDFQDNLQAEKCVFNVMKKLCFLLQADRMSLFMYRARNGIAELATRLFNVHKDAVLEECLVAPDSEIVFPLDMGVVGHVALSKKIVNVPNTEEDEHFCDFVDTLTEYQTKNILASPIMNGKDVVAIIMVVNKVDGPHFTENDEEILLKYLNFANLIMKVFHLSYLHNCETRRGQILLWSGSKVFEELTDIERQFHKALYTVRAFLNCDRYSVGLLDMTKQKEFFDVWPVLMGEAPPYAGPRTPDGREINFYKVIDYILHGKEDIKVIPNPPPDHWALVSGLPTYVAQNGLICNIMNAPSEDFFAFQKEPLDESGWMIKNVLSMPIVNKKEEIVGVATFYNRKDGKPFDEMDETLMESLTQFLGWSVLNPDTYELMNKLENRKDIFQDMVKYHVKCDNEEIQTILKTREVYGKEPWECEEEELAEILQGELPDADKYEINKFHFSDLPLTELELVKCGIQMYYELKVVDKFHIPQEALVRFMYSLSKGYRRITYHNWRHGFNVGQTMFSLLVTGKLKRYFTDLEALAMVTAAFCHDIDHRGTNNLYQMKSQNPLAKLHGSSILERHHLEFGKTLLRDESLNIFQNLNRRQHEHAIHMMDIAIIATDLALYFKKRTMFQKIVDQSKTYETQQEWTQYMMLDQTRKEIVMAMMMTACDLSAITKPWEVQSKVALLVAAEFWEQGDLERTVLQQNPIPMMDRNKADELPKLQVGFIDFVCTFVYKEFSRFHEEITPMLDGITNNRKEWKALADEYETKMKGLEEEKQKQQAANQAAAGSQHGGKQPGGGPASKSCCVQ
bovine retinal PDE-6 (Bos taurus (Bovine), UniProt P11541+P23439), sequence (P23439 whole entry, looked up): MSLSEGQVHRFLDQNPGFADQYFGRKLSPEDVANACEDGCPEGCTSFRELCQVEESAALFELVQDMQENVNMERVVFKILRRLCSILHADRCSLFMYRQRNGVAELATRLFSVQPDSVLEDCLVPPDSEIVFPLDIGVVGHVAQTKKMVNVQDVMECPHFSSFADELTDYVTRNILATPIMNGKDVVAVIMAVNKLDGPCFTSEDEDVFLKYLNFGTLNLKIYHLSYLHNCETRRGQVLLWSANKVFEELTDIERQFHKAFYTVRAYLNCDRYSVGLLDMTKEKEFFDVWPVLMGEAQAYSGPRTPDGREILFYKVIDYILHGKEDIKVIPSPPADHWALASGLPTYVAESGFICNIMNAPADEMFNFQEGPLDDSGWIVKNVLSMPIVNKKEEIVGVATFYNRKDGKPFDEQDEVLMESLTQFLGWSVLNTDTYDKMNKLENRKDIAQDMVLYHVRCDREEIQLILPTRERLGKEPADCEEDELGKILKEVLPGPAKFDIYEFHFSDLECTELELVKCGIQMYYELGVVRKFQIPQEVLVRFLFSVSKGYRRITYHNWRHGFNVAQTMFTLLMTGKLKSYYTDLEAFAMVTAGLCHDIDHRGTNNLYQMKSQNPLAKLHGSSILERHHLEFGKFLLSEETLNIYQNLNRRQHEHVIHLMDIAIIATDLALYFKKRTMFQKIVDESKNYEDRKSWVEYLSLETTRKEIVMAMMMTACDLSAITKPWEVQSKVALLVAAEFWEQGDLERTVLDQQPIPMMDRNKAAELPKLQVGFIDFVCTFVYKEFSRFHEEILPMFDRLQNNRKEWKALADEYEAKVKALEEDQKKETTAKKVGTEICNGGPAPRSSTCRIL
Method: (§1) Experiment 3: Measurement of Enzyme Activity on PDE-6 Enzyme In Vitro
(§2) Source of enzyme: PDE-6, bovine retinal PDE-6
(§3) Method: The test compound or solvent was incubated at 25° C. for 15 min with enzyme solution (0.2 μg/mL) in Tris-HCl buffer of pH 7.5. 100 μM cGMP and 0.03 μM [^3H] cGMP were then added to activate the reaction. The mixture was incubated for 20 min. The reaction was stopped at 100° C. By addition of snake venom nucleotidase, the product [^3H] GMP was converted into [^3H] Guanosine, which was separated with AG1-X2 resin. The amount of [^3H] Guanosine was measured.

[11] = tested on: bovine retinal PDE-6; test: PDE-6 enzyme assay, [3H]cGMP; format: biochemical; conditions: selectivity >70 called high
Method: as §1, §2, §3

[12] = tested on: length of New Zealand rabbit's penis; test: Pharmacological activity in vivo (oral administration, 70 mg/kg, with SNP), rabbit penis length; design: species or system New Zealand rabbits; conditions: Table 8; oral 70 mg/kg; SNP 0.2 mg/kg iv 60 min after; 0-180 min
Method: Experiment 7: Assay of Pharmacological Activity In Vivo (Oral Administration)
After accommodating with the environment, the New Zealand rabbits were grabbed everyday. When the rabbits were accustomed to the repeated grabbing, drug administration was began. The animals were randomly divided into groups by weight, with 6 rabbits of each group. […] The corresponding test compounds were orally administrated to animals of each group. The dosage was 70 mg/kg, and the administration volume was 1 mL/kg. SNP (0.2 mg/kg, 0.5 mL/kg) was injected into the auricular veins of rabbits 60 min after the administration of the test compounds. The length of the rabbit's penis was measured with a digital caliper before and 10, 15, 30, 50, 60, 65, 70, 75, 90, 110, 120 and 180 min after the administration. Touch of the rabbit's penis by the caliper was avoided during the measurements.

[13] = SD, plasma, po, intragastric administration, 2 mg/kg
[14] = Table 2, human blood platelet enzyme, read-out: IC50 on PDE-5
[15] = Table 4-1, read-out: PDE-6 (IC50 nM)

Structure (SMILES): COc1ccc(CN=c2[nH]c(N3CCC[C@H]3CO)ncc2C(=O)NCc2ncccn2)cc1Cl [Avanafil, reference compound]
- AUC of penis length ([1]; Table 5, 1 mL/kg): 317.9 mm × min
- AUC of penis length ([1]; Table 6, 2 mL/kg): 421.2 mm × min
- AUC of penis length [2]: 199.4 mm × min
- IC50 [3]: 14.6 µM
- AUC(0-inf) [4, 13]: 50 ng·h/mL
- Cmax [4, 13]: 18 ng/mL
- Tmax [4, 13]: 0.33 h
- bioavailability [4, 13]: 4.5%
- AUC(0-inf) ([4]; SD, plasma, intravenous injection, 2 mg/kg): 382 ng·h/mL
- Cl_obs ([4]; intravenous injection, 2 mg/kg): 88.5 mL/min/kg
- Vss_obs ([4]; intravenous injection, 2 mg/kg): 3.56 L/kg
- half-life [5]: about 1.2 h
- ratio PDE-6/5 [6]: about 120
- inhibitory effect on PDE-11 [7]: no inhibitory effect on PDE-11

Structure (SMILES): COc1ccc(CNc2nc(N3CC4CC4C3)ncc2C(=O)NCc2ccccc2)cc1Cl (stereo not shown) [Compound 3, N-benzyl-2-(3-azabicyclo[3.1.0]hexan-3-yl)-4-((3-chloro-4-methoxybenzyl)amino)pyrimidine-5-formamide]
- IC50 [8]: 0.0129 µM
- IC50 [9, 14]: 0.91 nM
- IC50 [10, 15]: 8.89 nM
- selectivity on PDE-5 enzyme versus PDE-6 (in words) [11]: higher selectivity on PDE-5 enzyme than to PDE-6
- AUC of penis length [12]: 46.26 mm × min
- IC50 [3]: > 27.8 µM
- inhibitory effect on hERG channel (in words) ([3]; human, CHO-K1 cells stably expressing hERG channel, pH 7.4): none of Compound 3, 11 and 50 of the present invention had a significant inhibitory effect

Structure (SMILES): COc1ccc(CNc2nc(N3CCC4(CC4)C3)ncc2C(=O)N[C@H]2CC[C@H](O)CC2)cc1Cl [Compound 38, 4-((3-chloro-4-methoxybenzyl)amino)-N-(trans-4-hydroxycyclohexyl)-2-(5-azaspiro[2.4]heptan-5-yl)pyrimidine-5-formamide]
- IC50 [9, 14]: 0.8 nM
- IC50 ([9]; Table 4-1, read-out: PDE-5 (IC50 nM)): 0.8 nM
- IC50 ([10]; Table 3, read-out: IC50 on PDE-6): 58 nM
- IC50 [10, 15]: 58 nM
- AUC of penis length ([1]; Table 6, 2 mL/kg): 772.8 mm × min
- AUC of penis length [2]: 802.7 mm × min
- AUC of penis length [12]: 654.0 mm × min
- half-life [4, 13]: 2.11 h
- bioavailability [4, 13]: 35%
- half-life ([4]; SD, plasma, intravenous injection, 1 mg/kg): 3.5 h
- Cl_obs ([4]; intravenous injection, 1 mg/kg): 16.8 mL/min/kg
- Vss_obs ([4]; intravenous injection, 1 mg/kg): 4.47 L/kg

Structure (SMILES): CN1CC(=O)N2[C@H](c3ccc4c(c3)OCO4)c3[nH]c4ccccc4c3C[C@@H]2C1=O [Tadalafil]
- half-life [5]: about 16 h
